Laboratory results as given in PMC4579271, “Inflammatory Signaling by NOD-RIPK2 Is Inhibited by Clinically Relevant Type II Kinase Inhibitors” (Chemistry & Biology, 2015).

Key:
[1] = system: IκBα degradation in THP-1 cells; assay: Immunoblot of IκBα in L18-MDP-stimulated THP-1 cells; format: cell-based, human; conditions: 100 nM pre-treatment, 200 ng/ml L18-MDP
Procedure: (§1) Figure 5 Inhibition of NOD2-Dependent Ubiquitination and Signaling (A–C) THP-1 cells were pre-treated with kinase inhibitors or DMSO for 30 min and stimulated with 200 ng/ml L18-MDP (A, B) or TNF (C) as indicated. At the indicated time points, cells were lysed and ubiquitinated proteins were isolated using TUBE reagent. The isolated ubiquitinated proteins and input material were analyzed by immunoblotting. See also Figure S6.
(§2) The ubiquitin conjugates were purified using GST-Tandem Ubiquitin Binding Entities (TUBE; [Fiil et al., 2013]). In brief, treated THP-1 cells (6–10 × 10^6) were washed with PBS and lysed in 400 μl of ice-cold lysis buffer containing TUBE on ice for 30 min. Cleared lysates were incubated with Glutathione Sepharose 4B resin (Amersham) with agitation at 4°C overnight. The beads were washed four times with PBS-Tween (0.1%) and the bound proteins were released by heating the beads in reducing SDS sample buffer. The samples were resolved on pre-cast gradient gels (NuPage; Life Technologies) in MOPS running buffer and subjected to immunoblotting.

[2] = system: RIPK1 ubiquitination and IκBα degradation in THP-1 cells; assay: TUBE purification and immunoblot, TNF-stimulated THP-1 cells; format: cell-based, human; conditions: TNF treatment
Procedure: as §1, §2

[3] = system: NOD2-dependent TNF production in primary human monocytes; assay: Flow cytometry of intracellular TNF in primary human monocytes, L18-MDP; format: cell-based
Procedure: Experimental conditions are measured in 4–5 healthy donors. […] Gray background indicates range without inhibitors. See also Figure S7.

[4] = system: TNF production by LPS stimulation in primary human monocytes; conditions: 200 ng/ml LPS
RIPK1 = biological target: T1, RIPK1 (Homo sapiens, UniProt Q13546); parameters: method as in Najjar et al., 2015; conditions: ref Najjar et al., 2015; cited from earlier work
T1 sequence (Q13546 1-671): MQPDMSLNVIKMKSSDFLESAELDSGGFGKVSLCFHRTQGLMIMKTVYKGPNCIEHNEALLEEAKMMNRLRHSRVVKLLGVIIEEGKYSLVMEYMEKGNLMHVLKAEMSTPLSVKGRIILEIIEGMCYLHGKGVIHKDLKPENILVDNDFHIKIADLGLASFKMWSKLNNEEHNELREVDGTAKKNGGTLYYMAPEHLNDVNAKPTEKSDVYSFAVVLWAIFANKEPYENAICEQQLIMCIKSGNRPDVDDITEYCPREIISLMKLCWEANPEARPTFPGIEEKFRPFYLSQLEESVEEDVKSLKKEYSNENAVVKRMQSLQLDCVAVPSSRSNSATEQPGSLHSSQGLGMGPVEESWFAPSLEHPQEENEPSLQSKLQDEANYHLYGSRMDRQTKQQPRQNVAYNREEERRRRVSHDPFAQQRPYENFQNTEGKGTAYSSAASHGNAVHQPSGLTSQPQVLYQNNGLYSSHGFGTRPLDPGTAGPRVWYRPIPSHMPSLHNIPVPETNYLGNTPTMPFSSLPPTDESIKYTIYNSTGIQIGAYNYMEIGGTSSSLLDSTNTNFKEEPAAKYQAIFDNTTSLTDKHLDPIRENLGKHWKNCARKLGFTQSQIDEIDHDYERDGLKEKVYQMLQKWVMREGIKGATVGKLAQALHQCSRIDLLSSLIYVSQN

RIPK3 = RIPK3 (Homo sapiens, UniProt Q9Y572); parameters: method as in Najjar et al., 2015; conditions: ref Najjar et al., 2015; cited from earlier work
[5] = parameters: method as in Cortes et al., 2013; conditions: clinical use; ref Cortes et al., 2013; cited from earlier work
[6] = system: RAW264.7 macrophage cells; assay: Cell viability and morphology, 24 hours; conditions: 100 nM
[7] = system: NF-κB activation in HEKBlue cells expressing NOD2; assay: HEKBlue NF-κB-SEAP reporter activation assay, L18-MDP stimulation; conditions: Homo sapiens, HEK-Blue, 8 h, read-out: NFκB activity EC50
[8] = system: phospho-Ser176-RIPK2 (p-RIPK2) in NOD2-expressing HEK293 cells; assay: Western blot of phospho-Ser176-RIPK2 in HEKBlue cells after L18-MDP
[9] = system: NF-κB activation in U2OS cells; assay: NF-κB dual luciferase reporter assay in U2OS cells overexpressing HA-NOD2; conditions: 100 nM, 24 hr
[10] = system: RIPK2 ubiquitination in THP-1 cells; assay: TUBE purification of ubiquitin conjugates, L18-MDP-stimulated THP-1 cells; conditions: 200 ng/ml L18-MDP

Chain of RIPK3 (Q9Y572 whole entry, species assumed): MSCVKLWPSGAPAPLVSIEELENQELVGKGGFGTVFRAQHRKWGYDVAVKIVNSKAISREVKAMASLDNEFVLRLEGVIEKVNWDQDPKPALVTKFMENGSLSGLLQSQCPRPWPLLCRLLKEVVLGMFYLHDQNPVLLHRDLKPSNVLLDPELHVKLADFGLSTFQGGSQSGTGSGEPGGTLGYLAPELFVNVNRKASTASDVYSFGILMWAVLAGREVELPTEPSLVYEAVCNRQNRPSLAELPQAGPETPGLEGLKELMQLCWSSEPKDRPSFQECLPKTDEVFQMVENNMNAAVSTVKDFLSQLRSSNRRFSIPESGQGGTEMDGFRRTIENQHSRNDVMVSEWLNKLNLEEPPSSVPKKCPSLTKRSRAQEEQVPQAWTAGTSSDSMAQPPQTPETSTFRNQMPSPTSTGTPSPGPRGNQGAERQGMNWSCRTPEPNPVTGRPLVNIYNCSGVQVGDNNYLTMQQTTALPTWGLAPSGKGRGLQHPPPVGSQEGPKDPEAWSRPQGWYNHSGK

## Cc1ccc(C(=O)Nc2ccc(CN3CCN(C)CC3)c(C(F)(F)F)c2)cc1C#Cc1cnc2cccnn12 [ponatinib, 3-[2-(imidazo[1,2-b]pyridazin-3-yl)ethynyl]-4-methyl-N-{4-[(4-methylpiperazin-1-yl)methyl]-3-(trifluoromethyl)phenyl}benzamide]
[1]
  downstream degradation of IκBα: blocked
[2]
  ubiquitination of RIPK1 or IκBα degradation: no obvious effects
[3]
  concentration completely abrogating NOD2-dependent TNF production: 10 nM
[4]
  concentration attenuating TNF production by LPS stimulation: 1 µM
RIPK1
  inhibition of RIPK1 kinase activity in necroptosis: efficient inhibitor
RIPK3
  inhibition of RIPK3 kinase activity in necroptosis: efficient inhibitor
[5]
  adverse events: serious adverse events including vascular thrombosis
[6]
  morphology of RAW cells: caused rounding of RAW cells
[7]
  EC50: 800 pM
[8]
  concentration completely blocking RIPK2 phosphorylation: 10 nM
[9]
  NF-κB activation: completely disabled
[10]
  concentration completely blocking RIPK2 ubiquitination: ≥ 25 nM
  concentration reducing extent and length of ubiquitin-modified RIPK2: 5 to 10 nM
